Data on 1 substance can be found in patent US7951778B2, “Use of compounds having the biological activity of vasoactive intestinal peptide for the treatment of sarcoidosis” (mondoBIOTECH AG, priority 2002, dated 2011).

Common to all, as to assay type: in vivo, human
Experiment [1] relates to patient with severe sarcoidosis stadium 3 and secondary pulmonary hypertension. The experiment can be described thus: 6-minutes walk test. On the procedure:
(§1) A patient with severe sarcoidosis stadium 3 and secondary pulmonary hypertension was under therapy with cortocosteroids, furosemid, oxygen and an anticoagulant. Right heart catheterization (Swan-Ganz, Baxter, Irvine, Calif., USA) was performed to measure mean pulmonary artery pressure (mPAP), cardiac output (CO), mean arterial pressure (MAP), pulmonary capillary wedge pressure (PCWP) mixed venous oxygen saturation (SvO2%) and systemic arterial oxygen pressure (PaO2%) for and after treatment with VIP inhalation (200 μg in 12 ml 0.9% NaCl per day, 4×3 ml per inhalation) for 12 weeks. FEV1 (forced expiratory volume in one second), FVC (forced vital capacity), TLC (total lung capacity), AaDO2 (arterial-alveolar oxygen difference) of sarcoidosis patient is measured according to standard methods for and after treatment with VIP (200 μg in 12 ml 0.9% NaCl per day) for 12 weeks. VIP was inhaled for 12 weeks via the MicroDrop Master Jet (MPV, Truma, Germany) using a particle size of 3 μm to provide alveolar deposition of the substance.
In the 6-minutes walk test, the patient improved from 210 meters before treatment to 350 meters after the treatment

The test system is the same in experiment [2]. The experiment can be described thus: Lung function parameters before and after 12 weeks VIP inhalation. The following applies: after treatment, VIP inhalation 200 μg per day. Here is the method:
as §1
(§2) Hemodynamic and lung function parameters of the sarcoidosis patient before and after the treatment with VIP for 12 weeks are summary in Table 2.

Experiment [3] has the same test system. The experiment can be described thus: Hemodynamic parameters by right heart catheterization before and after 12 weeks VIP inhalation. As to conditions: VIP inhalation 200 μg per day. On the procedure: as §1, §2

In the case of “His-Ser-Asp-Ala-Val-Phe-Thr-Asp-Asn-Tyr-Thr-Arg-Leu-Arg-Lys-Gln-Met-Ala-Val-Lys-Lys-Tyr-Leu-Asn-Ser-Ile-Leu-Asn [VIP]”, the “6-minutes walk test distance” value in experiment [1] (after the treatment with VIP for 12 weeks, 210 meters before treatment) amounted to 350 meters. The 6-Min.WT in experiment [1] (after treatment, VIP inhalation 200 μg per day, 12 weeks, before treatment 210) turned out to be 350. Also, in experiment [2] (before treatment 1.2), the FEV1 (forced expiratory volume in one second) came out at 1.1 L. The “FVC (forced vital capacity)” value in experiment [2] (before treatment 1.4) turned out to be 1.3. In experiment [2] (before treatment 2.3), the “TLC (total lung capacity)” value was found to be 2.7. The “AaDO2 (arterial-alveolar oxygen difference)” value in experiment [2] (before treatment 39.0) was found to be 37.0. This substance also showed a CI in experiment [3] (after treatment, before treatment 2.1) of 2.7. For the same substance, in experiment [3] (after treatment, before treatment 3.9), the “CO (cardiac output)” value is reported as 4.9. Besides, the “PaO2 (systemic arterial oxygen pressure)” value in experiment [3] (after treatment, before treatment 47.0) stood at 54.0. The “SvO2 (mixed venous oxygen saturation)” value in experiment [3] (after treatment, before treatment 49.4) is 53.0. Further, in experiment [3] (after treatment, before treatment 55.0), the PaCO2 was 52.0. In experiment [3] (after treatment, before treatment 83.2), this substance yielded a SaO2 of 88.0. The “mAP (mean arterial pressure)” value in experiment [3] (after treatment, before treatment 84.0) came to 98.0. For the same substance, the “PCWP (pulmonary capillary wedge pressure)” value is on record as 10 in experiment [3] (first PCWP line of Table 2, after treatment, before treatment 10) and 7.0 in experiment [3] (second PCWP line of Table 2, after treatment, before treatment 6.0). Further, the PVR in experiment [3] (first PVR line of Table 2, after treatment, before treatment 923) is given as 359; in experiment [3] (second PVR line of Table 2, after treatment, before treatment 985.0), 313.0. Besides, the “mPAP (mean pulmonary artery pressure)” value amounted to 32 in experiment [3] (first mPAP line of Table 2, after treatment, before treatment 55) and 26.0 in experiment [3] (second mPAP line of Table 2, after treatment, before treatment 54.0).
